Columns and labels:
BaF3 [1] = experiment: Antiproliferative activity against mouse BAF3 cells expressing PDGFRalpha T674M mutant gene; assay type: functional, cell-based
BaF3 [2] = experiment: Antiproliferative activity against mouse BAF3 cells expressing Kit […] mutant gene; assay type: functional, cell-based
BaF3 [3] = experiment: Antiproliferative activity against wild type mouse BAF3 cells; assay type: cell-based
MOLT-3 = experiment: Antiproliferative activity against human MOLT3 cells expressing FLT3 gene; assay type: functional, cell-based

Measured: EC50

O=C(NCCN1CCOCC1)c1cccc(-c2ccc3c(NC(=O)C4CC4)n[nH]c3c2)c1
> 10 µM: all assays above

Source: ChEMBL document CHEMBL2046416, “An amino-indazole scaffold with spectrum selective kinase inhibition of FLT3, PDGFRα and kit” (Bioorg Med Chem Lett, 2012)
